Data set [1] in a line: Relative hydrophobicity by RP-HPLC (% MeCN at peak elution). Type of data set: physicochemical. The following applies: RP-HPLC gradient 0 → 60% B during 10 min; % MeCN at peak elution calculated from retention time. The method, then:
The relative hydrophobicity of each peptidomimetic was measured by reverse-phase high-performance liquid chromatography (RP-HPLC). Typically, the RP-HPLC retention time (or percentage acetonitrile at peak elution) constitutes the preferred measure that allows for comparison of relative hydrophobicity, while log P values of polycationic peptides or peptidomimetics normally are considered unsuitable due to the extreme hydrophilic nature of such compounds [11, 45, 57, 58, 59, 60]. […] For both subgroups III (with cationic amino acid residues and the peptoid analogue of Phe, NPhe, i.e., 9–12) and IV (with cationic amino acid residues and the peptoid analogue of hPhe, NhPhe, i.e., 13–16) only minor differences in hydrophobicity were seen. These observations infer that, when the cationic residues are of a peptoid nature, the side-chain length of these has a […] influence on the hydrophobicity. […] Thus, introduction of additional six methylene groups results, as expected, in increased hydrophobicity.
Starting materials and solvents were purchased from commercial suppliers (Iris Biotech, Markredwitz, Germany; Fluorochem, Hadfield, United Kingdom; and Merck, Darmstadt, Germany) and used without further purification. Water used for analytical and preparative high-performance liquid chromatography (HPLC) was filtered through a 0.22-μm Millipore membrane filter. Purity and retention time of each peptidomimetic were determined by analytical UHPLC by using a Phenomenex Luna C18(2) HST column (100 mm × 3 mm; particle size: 2.5 μm; pore size: 100 Å) on a Shimadzu Prominence and Shimadzu Nexera system using an aqueous acetonitrile (MeCN) gradient with 0.1% trifluoroacetic acid (TFA) added (eluent A: 5:95 MeCN–H2O + 0.1% TFA, eluent B: 95:5 MeCN–H2O + 0.1% TFA); a flow rate of 0.5 mL/min was used. For elution of peptidomimetics, a linear gradient of 0% to 60% B during 10 min was used with UV detection at λ = 220 nm. […] For each peptidomimetic, the percentage of MeCN at peak elution was calculated from the retention time by using the following formula:(1) %MeCN = 0.95 (0.6Rt/10 min.) + 0.05 (1−0.6Rt/10 min.).

Data set [2] has as its system A. baumannii ATCC 19606. The format is cell-based. The following applies: ATCC 19606, 20 h. The method, then:
(§1) MIC values were evaluated by using the modified Hancock lab protocol in non-binding polystyrene microtitre plates, with bacterial suspensions of ∼2 × 10^5 CFU/mL in Mueller-Hinton broth (Difco, Sparks MD, USA), with Mg^2+ and Ca^2+ concentrations of 4 mg/L each. The compounds were dissolved in H2O and diluted in 0.01% acetic acid, 0.2% BSA (final concentration). Aliquots of 11 µL of 10 × test compounds were then transferred to the appropriate wells with bacterial suspensions. For preparation and transfer of the solutions of the compounds, low-binding sterile tubes and tips (Axygen, Union City CA, USA) were used. After 20 h incubation of covered plates at 35 °C (±2 °C) with circular shaking at 220 rpm, the MICs were read. The antibacterial activity of peptidomimetics was tested against E. coli ATCC 25922, K. pneumoniae ATCC 13883, P. aeruginosa ATCC 27853, P. aeruginosa PAO1, A. baumannii ATCC 19606, S. aureus ATCC 29213, and E. faecalis ATCC 29212.

For data set [3], the system named is E. coli ATCC 25922. The format is cell-based. The following applies: ATCC 25922, 20 h. The method, then:
as §1

Data set [4] deals with E. faecalis ATCC 29212. The format is cell-based. The settings on record: ATCC 29212, 20 h. Here is the method:
as §1

In data set [5] the test system is K. pneumoniae ATCC 13883. The format is cell-based. The following applies: ATCC 13883, 20 h. Here is the method:
as §1

Data set [6] concerns P. aeruginosa ATCC 27853. Type of data set: cell-based. The settings on record: ATCC 27853, 20 h. The method, then: as §1
Data set [7] concerns P. aeruginosa PAO1. The format is cell-based. The settings on record: PAO1, 20 h. The method, then:
as §1

Data set [8] has as its system S. aureus ATCC 29213. The format is cell-based. The following applies: ATCC 29213, 20 h. The method, then:
as §1

Data set [9] in a line: in vitro. Type of data set: cell-based. The following applies: human. The method, then:
(§2) Side effects affecting cell viability were estimated on the HepG2 cell line ATCC HB-8065. In brief, HepG2 cells were seeded in flat-bottomed 96-well plates at a concentration of 5000 cells per well. At 80−90% confluency, the cells were incubated for 24 h in a humidified incubator (5% CO2, 37 °C). The medium was removed, and the cells were incubated for 48 h in a humidified incubator (5% CO2, 37 °C) with compounds in two-fold serial dilutions. An MTT assay was then performed as previously described. In brief, after incubation with the test compounds, the culture medium was removed and fresh medium with 0.2 mg/mL MTT was added in each well of the plate. After incubation (3 h, 37 °C, 5% CO2), the medium with MTT was removed, and 200 μL dimethyl sulfoxide were added at once to each sample. Absorbance of MTT was measured using spectrophotometer TECAN Infinite M1000 at 540 nm. The relative viability was calculated by using the formula: ODtreated cells × 100/ODcontrol cells. The IC50 values are calculated by using the program Graph Pad Prism® 5.0. For all compounds, the test range was 10–1280 μg/mL.

The subject of data set [10] is HepG2 cell line ATCC HB-8065. The data set is described as follows: in vitro. Type of data set: cell-based. The following applies: 48 h. The method, then:
as §2

Data set [11] is described as follows: in vitro. Type of data set: cell-based. The following applies: human, Hemolytic Activity (percentage hemolysis). The method, then: The lysis of human red blood cells was measured as previously described, with modifications. In brief, freshly drawn human red blood cells (hRBCs) were washed three times with PBS buffer and centrifuged two times for 5 min at 2500 rpm. A two-fold serial dilution of peptidomimetics in PBS buffer was added to each well in a sterile polypropylene V-bottom 96-well plate to the total volume of 75 μL. A 0.5% v/v hRBC suspension (75 μL in PBS buffer) was added to each well to reach a final volume of 150 μL in each well. The plate was incubated (37 °C) for 60 min, and then the cells were subsequently pelleted by centrifugation at 1000 rpm for 5 min. The supernatants (50 μL) were transferred to clear, flat-bottomed plastic 96-well plates. The concentration of hemoglobin was detected by measuring the OD at 405 nm. The OD of cells incubated with 0.1% SDS defined 100% hemolysis, while the OD of cells incubated with PBS buffer defined 0% hemolysis. The concentrations tested were 200, 400, and 800 μg/mL (only average values for the highest concentration are stated in Table 2).

These results are taken from article PMC6943742, “Peptide/Peptoid Hybrid Oligomers: The Influence of Hydrophobicity and Relative Side-Chain Length on Antibacterial Activity and Cell Selectivity” (Molecules, 2019).

Values after ≈ are worked out from the molar mass of the structure shown. Non-standard residues stand in square brackets, D forms with d. Residues, ends and D or L forms follow the SMILES beside them. N(5-aminopentyl)Gly = NCCCCCNCC(=O)O; Gly(N-2-aminoethyl) = NCCNCC(=O)O; Gly(N(CH2)3NH2) = NCCCNCC(=O)O; hLys = NCCCCC[C@H](N)C(=O)O; Nphe = O=C(O)CNCc1ccccc1; Nlys = NCCCCNCC(=O)O

For the compound `NCCNCC(=O)N[C@@H](Cc1ccccc1)C(=O)N(CCN)CC(=O)N[C@@H](Cc1ccccc1)C(=O)N(CCN)CC(=O)N[C@@H](Cc1ccccc1)C(=O)N(CCN)CC(=O)N[C@@H](Cc1ccccc1)C(=O)N(CCN)CC(=O)N[C@@H](Cc1ccccc1)C(=O)N(CCN)CC(=O)N[C@@H](Cc1ccccc1)C(N)=O` [Peptidomimetic 1] (H-[Gly(N-2-aminoethyl)]F[Gly(N-2-aminoethyl)]F[Gly(N-2-aminoethyl)]F[Gly(N-2-aminoethyl)]F[Gly(N-2-aminoethyl)]F[Gly(N-2-aminoethyl)]F-NH2), the “Hydrophobicity (% MeCN at elution)” value in data set [1] was 37.5%. The MIC in [2] is above 64 mg/L; in data set [3] it was 4 to 8 mg/L; in data set [4], above 64 mg/L; in [5] it was 64 mg/L (≈ 42.6 µM); in data set [6], 64 mg/L (≈ 42.6 µM); in [7], above 64 mg/L. The compound also returned an MIC in data set [8] above 64 mg/L. The compound further yielded a viability at 48 h, 1280 µg/mL in [9] of 49%. In [10], the “IC50 for inhibiting growth of HepG2 cells” value (“IC50 for inhibiting growth” below) is 1280 mg/L. In data set [11], this compound returned a hemolysis at 60 min, 800 µg/mL of 7%.

With `NCCCNCC(=O)N[C@@H](Cc1ccccc1)C(=O)N(CCCN)CC(=O)N[C@@H](Cc1ccccc1)C(=O)N(CCCN)CC(=O)N[C@@H](Cc1ccccc1)C(=O)N(CCCN)CC(=O)N[C@@H](Cc1ccccc1)C(=O)N(CCCN)CC(=O)N[C@@H](Cc1ccccc1)C(=O)N(CCCN)CC(=O)N[C@@H](Cc1ccccc1)C(N)=O` [Peptidomimetic 2] (H-[Gly(N(CH2)3NH2)]F[Gly(N(CH2)3NH2)]F[Gly(N(CH2)3NH2)]F[Gly(N(CH2)3NH2)]F[Gly(N(CH2)3NH2)]F[Gly(N(CH2)3NH2)]F-NH2), in data set [1], the “Hydrophobicity (% MeCN at elution)” value is 35.7%. Also, the MIC is above 64 mg/L in data set [2]; 8 to 16 mg/L in [3]; above 64 mg/L in data set [4]; 64 mg/L (≈ 40.4 µM) in data set [5]; above 64 mg/L in data set [6]; above 64 mg/L in data set [7]. Also, in data set [8], the MIC was above 64 mg/L. Further, the viability at 48 h, 1280 µg/mL in [9] is 62%. In data set [10], the “IC50 for inhibiting growth” value is above 1280 mg/L. Moreover, in data set [11], the hemolysis at 60 min, 800 µg/mL worked out at 5%.

For `NCCCCNCC(=O)N[C@@H](Cc1ccccc1)C(=O)N(CCCCN)CC(=O)N[C@@H](Cc1ccccc1)C(=O)N(CCCCN)CC(=O)N[C@@H](Cc1ccccc1)C(=O)N(CCCCN)CC(=O)N[C@@H](Cc1ccccc1)C(=O)N(CCCCN)CC(=O)N[C@@H](Cc1ccccc1)C(=O)N(CCCCN)CC(=O)N[C@@H](Cc1ccccc1)C(N)=O` [Peptidomimetic 3] (H-[Nlys]F[Nlys]F[Nlys]F[Nlys]F[Nlys]F[Nlys]F-NH2), the “Hydrophobicity (% MeCN at elution)” value in data set [1] is 35.6%. Also, the MIC is above 64 mg/L in data set [2]; 8 to 16 mg/L in [3]; above 64 mg/L in data set [4]; 32 mg/L (≈ 19.2 µM) in data set [5]; above 64 mg/L in data set [6]; above 64 mg/L in [7]. For the same compound, the MIC in data set [8] is above 64 mg/L. This compound gave a viability at 48 h, 1280 µg/mL in data set [9] of 52%. In addition, in data set [10], the “IC50 for inhibiting growth” value was 1280 mg/L. In [11], this compound yielded a hemolysis at 60 min, 800 µg/mL of 8%.

In the case of `NCCCCCNCC(=O)N[C@@H](Cc1ccccc1)C(=O)N(CCCCCN)CC(=O)N[C@@H](Cc1ccccc1)C(=O)N(CCCCCN)CC(=O)N[C@@H](Cc1ccccc1)C(=O)N(CCCCCN)CC(=O)N[C@@H](Cc1ccccc1)C(=O)N(CCCCCN)CC(=O)N[C@@H](Cc1ccccc1)C(=O)N(CCCCCN)CC(=O)N[C@@H](Cc1ccccc1)C(N)=O` [Peptidomimetic 4] (H-[N(5-aminopentyl)Gly]F[N(5-aminopentyl)Gly]F[N(5-aminopentyl)Gly]F[N(5-aminopentyl)Gly]F[N(5-aminopentyl)Gly]F[N(5-aminopentyl)Gly]F-NH2), the “Hydrophobicity (% MeCN at elution)” value in data set [1] was 36.6%. In addition, the MIC was 64 mg/L (≈ 36.5 µM) in data set [2]; 4 to 8 mg/L in data set [3]; above 64 mg/L in data set [4]; 64 mg/L (≈ 36.5 µM) in [5]; above 64 mg/L in [6]; above 64 mg/L in [7]. The MIC in data set [8] is above 64 mg/L. The compound also showed a viability at 48 h, 1280 µg/mL in data set [9] of 49%. The “IC50 for inhibiting growth” value in data set [10] is 1280 mg/L. In data set [11], this compound registered a hemolysis at 60 min, 800 µg/mL of 9%.

Take `NCCCCC[C@H](NC(=O)CN(Cc1ccccc1)C(=O)[C@H](CCCCCN)NC(=O)CN(Cc1ccccc1)C(=O)[C@H](CCCCCN)NC(=O)CN(Cc1ccccc1)C(=O)[C@H](CCCCCN)NC(=O)CN(Cc1ccccc1)C(=O)[C@H](CCCCCN)NC(=O)CN(Cc1ccccc1)C(=O)[C@@H](N)CCCCCN)C(=O)N(CC(N)=O)Cc1ccccc1` [Peptidomimetic 12] (H-[hLys][Nphe][hLys][Nphe][hLys][Nphe][hLys][Nphe][hLys][Nphe][hLys][Nphe]-NH2): the “Hydrophobicity (% MeCN at elution)” value in [1] is on record as 38.0%. Also, the MIC in [3] was 2 mg/L (≈ 1.14 µM); in [4] it was above 64 mg/L; in [5], above 64 mg/L; in [6] it was 64 mg/L (≈ 36.5 µM); in data set [7] it was 64 mg/L (≈ 36.5 µM); in [8], above 64 mg/L. This compound also had a viability at 48 h, 1280 µg/mL in data set [9] of 47%. Besides, the “IC50 for inhibiting growth” value in [10] was found to be 1280 mg/L. For the same compound, in [11], the hemolysis at 60 min, 800 µg/mL came to 9%.
